Columns and labels:
[1] = Panel test of smell, 9-hexadecanoic acid at 37° C. (Experiment 6); design: key: +++: the same or higher level of odor; ++: slightly lower level of odor; +: clearly lower level of odor than that of the control system; −: odorless; details: 3-days of standing, 37° C., 9,000 lux
Source text: (§1) Upon the HSG samples, the level of a body-odor-like smell was examined on a panel test consisting of six professional panels; the panels directly smelled the samples from each glass vial and judged the level of the smells for each samples with test saccharides based on the following four ranks, i.e., the same or higher level of odor (+++), slightly lower level of odor (++), clearly lower level of odor (+), and odorless (−) as compared with the control system. Summing up the data from the panels, the samples tested were totally evaluated.
(§2) One hundred milligrams of 9-hexadecanoic acid as a fatty acid, 500 mg of a cellulose powder, and 1.25 ml of 0.12 M phosphate buffer (pH 6.0) were placed in a 20-ml glass vial. To the glass vial was added 100 mg of either of trehalose, maltitol and sucrose as a test saccharide, followed by sealing with a butyl rubber cap for use as a test system. As a control system, there provided a glass vial with no test saccharide that differed from the test systems only in this point. In both the test- and control-systems, they were respectively provided in doublet.
These glass vials were allowed to stand in a 37° C.-thermostatic-bath under the irradiation of 9,000 lux by a fluorescent lamp. […] After the collection of HSG, the smell from glass vials was evaluated by panel test in accordance with the method in Experiment 2.

[2] = Panel test of body-odor-like smell (KAREI-SHU), 9-hexadecanoic acid heated (Experiment 3); design: key: +++: the same or higher level of odor; ++: slightly lower level of odor; +: clearly lower level of odor than the control system; details: compared with control system
Source text: as §1
(§3) The content of 2-nonenal in HSG was measured by GC similarly as in Experiment 1 except that 9-hexadecanoic acid or palmitoleic acid was used as a fatty acid and 2-nonenal, a volatile aldehyde, was used as a standard substance. The level of body-odor-like smell, particularly with respect to KAREI-SHU, in each sample was evaluated by panel test in accordance with the method in Experiment 1.

healthy volunteer = assay: Test on volunteer: volatile aldehydes collected from worn underwear (Experiment 7); format: in vivo, human
Protocol: The influence of saccharides on the formation of body odor from living bodies by applying trehalose to a healthy volunteer, under the following schedule: After soaking a towel in a 2% (w/w) aqueous trehalose solution, which had been boiled for five minutes and then cooled to about 40° C., at 10:30 a.m. on the day of starting a test, the volunteer as in a test system was allowed to wipe their whole body with the towel squeezed roughly to apply trehalose on the body surface, and made them to spend their daily life as usual after the drying of the applied aqueous trehalose solution. Thereafter, they were made to take a bath at 9 p.m. as usual and allowed to sufficiently wash their whole body including their hair. Just after bathing, a fresh preparation of aqueous trehalose solution was applied on the body surface similarly as above, then after drying the aqueous trehalose solution, they were made to wear an underwear and allowed to spend their daily life. At 5:30 p.m. on the next day after the initiation of the test, their worn underwear was collected, and tested for the presence and the content of volatile aldehydes in the underwear by the following procedures. As a control, on other day, the volunteer was allowed to wear a similar underwear as used in the test system according to the above test system except for replacing the aqueous trehalose solution with water, and then made them to spend their daily life, followed by collecting their underwear and analyzing them by the following procedures similarly as above.
As shown schematically in FIG. 1, an underwear 5 worn by the volunteer in each system was sealed after placed in a sealing vessel 1 immediately after the collection, and the gas in the sealing vessel 1 was pumped by an air pump 3 into a cartridge 4, “Superclean LpDNPH Cartridge”, with a lot No. LpDNPH S10L commercialized by Supelco Inc., Tokyo, Japan, to collect volatile aldehydes through a pipe 2 at ambient temperature of about 20° C., while the gas was continuously circulated through the sealed vessel 1 through the pipe 2 for one hour to collect in the cartridge 4 volatile aldehydes, as DNPH (dinitrophenylhydrazine), contained in the underwear 5. Thereafter, the cartridge 4 was removed and received two milliliters of acetonitrile by passing therethrough, followed by collecting an eluate from the cartridge 4. The collected eluate was analyzed on GC as follows.
“GAS CHROMATOGRAPH GC-14B”, as a GC apparatus produced by Shimadzu Corporation, Tokyo, Japan; and “TC-Wax CAPILLARY COLUMN”, a column for analysis, having 0.53 mm in inner diameter, 25 m in length, and 0.5 μm in thickness, produced by GL Sciences, Inc., Tokyo, Japan, were used. Helium gas was used as a carrier gas at a flow rate of 1 ml/min, and the temperature for a sample injection part was set to 240° C., while keeping a column thermostatic bath temperature at 50° C. for five minutes and then increasing the temperature up to 200° C. at a rate of 5° C./min. Using two microliters of an analysis sample as an injection volume, 1/30 volume of the injected sample was analyzed (split 1:30) by passing through the column for analysis while controlling the flow rate of the carrier gas at the sample injection part and using a hydrogen flame ionization detector for detection. As standard specimens, DNPH derivatives for each 2-nonenal, 2-octenal, hexanal, and nonanal were used and separately analyzed on GC under the conditions shown above. Based on the gas chromatograms from the above analyses, the content (μg) of respective 2-nonenal, 2-octenal. hexanal, and nonanal, collected form the underwears in the test system and control, was determined.

[3] = Panel test of smell, 9-hexadecanoic acid at 37° C. (Experiment 6); design: key: +++: the same or higher level of odor; ++: slightly lower level of odor; +: clearly lower level of odor than that of the control system; details: 37° C., 9,000 lux
Source text: as §1, §2
These glass vials were allowed to stand in a 37° C.-thermostatic-bath under the irradiation of 9,000 lux by a fluorescent lamp. At 3-days of standing, one of each pair of the vials containing the same composition, and 7-days of standing, the other vial of each resting pair of the vials were transferred to a heat block, which had been preheated to 80° C. and then kept therein for five minutes, followed by analyzing the content of 2-nonenal in HSG in each vial by GC similarly as in Experiment 2. After the collection of HSG, the smell from glass vials was evaluated by panel test in accordance with the method in Experiment 2.

[4] = Panel test of body-odor-like smell (KAREI-SHU), 9-hexadecanoic acid heated (Experiment 3); design: key: +++: the same or higher level of odor; ++: slightly lower level of odor; +: clearly lower level of odor than that of the control system; details: compared with control system
Source text: as §1, §3

SMILES | Evaluation of panel test [1] | Evaluation of panel test [2] | formation of body odor (healthy volunteer; experiment using maltitol in place of trehalose) | Evaluation of panel test ([3]; 7-days of standing) | Evaluation of panel test [4] | Evaluation of panel test ([3]; 3-days of standing) | Content of volatile aldehydes collected from underwear, 2-Nonenal (healthy volunteer; 2% (w/w) aqueous trehalose solution applied on the body surface, control 7.05) | Content of volatile aldehydes collected from underwear, Hexanal (healthy volunteer; 2% (w/w) aqueous trehalose solution on the body surface, control 5.39, * means no detection) | Content of volatile aldehydes collected from underwear, 2-Octenal (healthy volunteer; 2% (w/w) aqueous trehalose solution on the body surface, control 8.61, * means no detection) | Content of volatile aldehydes collected from underwear, Nonanal (healthy volunteer; 2% (w/w) aqueous trehalose solution on the body surface, control 10.93, * means no detection) | 2-nonenal in underwear, level relative to control (healthy volunteer; trehalose applied on the body surface versus water control)
OC[C@@H](O)[C@@H](O[C@H]1O[C@H](CO)[C@@H](O)[C@H](O)[C@H]1O)[C@H](O)[C@@H](O)CO [Maltitol, maltitol] | − | + | well inhibits the formation of body odor similarly as trehalose | + |  |  |  |  |  |  | 
OC[C@H]1O[C@@](CO)(O[C@H]2O[C@H](CO)[C@@H](O)[C@H](O)[C@H]2O)[C@@H](O)[C@@H]1O [Sucrose, sucrose] |  |  |  | +++ | +++ | ++ |  |  |  |  | 
OC[C@H]1O[C@H](O[C@H]2O[C@H](CO)[C@@H](O)[C@H](O)[C@H]2O)[C@H](O)[C@@H](O)[C@@H]1O [Trehalose, trehalose] | − | + |  | + |  |  | 3.72 µg | undetectable level | undetectable level | undetectable level | about 53%
